ChEMBL document CHEMBL3045253, “Synthesis and in vitro antiproliferative activity of diphenyl(sulphonylpiperidin-4-yl)methanol derivatives” (Med Chem Res, 2010)

Legend:
HeLa = assay: Cytotoxicity against Homo sapiens (human) HeLa cells assessed as survival at 100 uM after 24 hr by MTT assay relative to control; assay type: functional; details: read-out: Survival
HT-29 = assay: Cytotoxicity against Homo sapiens (human) HT-29 cells assessed as survival at 100 uM after 24 hr by MTT assay relative to control; assay type: functional; details: HT-29, 24 h, read-out: Survival
MCF7 = assay: Cytotoxicity against Homo sapiens (human) MCF7 cells assessed as survival at 100 uM after 24 hr by MTT assay relative to control; assay type: functional; details: MCF7, 24 h, read-out: Survival
HepG2 = assay: Cytotoxicity against Homo sapiens (human) HepG2 cells assessed as survival at 100 uM after 24 hr by MTT assay relative to control; assay type: functional; details: HepG2, 24 h, read-out: Survival
[1] = Cytotoxicity against Homo sapiens (human) NF103 cells assessed as survival at 100 uM after 24 hr by MTT assay relative to control; assay type: cell-based; details: read-out: Survival

Molecule O=S(=O)(c1ccc(Cl)cc1)N1CCC(C(O)(c2ccccc2)c2ccccc2)CC1 has a viability at 100 µM (HeLa) of 49.7%, a viability at 100 µM (HT-29) of 69.6% and a viability at 100 µM (MCF7) of 61.4%. The viability at 100 µM (HepG2) was 52.2% and the viability at 24 h, 100 µM [1] was 53%.

O=[N+]([O-])c1ccccc1S(=O)(=O)N1CCC(C(O)(c2ccccc2)c2ccccc2)CC1 showed a viability at 100 µM (HeLa) of 64.3%, a viability at 100 µM (HT-29) of 78.5% and a viability at 100 µM (MCF7) of 73.8%. The viability at 100 µM (HepG2) was 57.2% and the viability at 24 h, 100 µM [1] was 63.4%.

In the case of O=[N+]([O-])c1cccc(S(=O)(=O)N2CCC(C(O)(c3ccccc3)c3ccccc3)CC2)c1, the viability at 100 µM (HeLa) is reported as 70.3%, the viability at 100 µM (HT-29) is reported as 75% and the viability at 100 µM (MCF7) is reported as 63.4%. For the same molecule, the viability at 100 µM (HepG2) was 64.2% and the viability at 24 h, 100 µM [1] was 57.4%.

Molecule O=[N+]([O-])c1ccc(S(=O)(=O)N2CCC(C(O)(c3ccccc3)c3ccccc3)CC2)cc1 has a viability at 100 µM (HeLa) of 54%, a viability at 100 µM (HT-29) of 70.8% and a viability at 100 µM (MCF7) of 69.8%. For the same molecule, the viability at 100 µM (HepG2) was 68.7% and the viability at 24 h, 100 µM [1] was 53.6%.

Molecule Cc1ccc(S(=O)(=O)N2CCC(C(O)(c3ccccc3)c3ccccc3)CC2)cc1 has a viability at 100 µM (HeLa) of 71.2%, a viability at 100 µM (HT-29) of 45.1% and a viability at 100 µM (MCF7) of 70.2%. For the same molecule, the viability at 100 µM (HepG2) was 62.7% and the viability at 24 h, 100 µM [1] was 65.6%.

Molecule Cc1noc(C)c1S(=O)(=O)N1CCC(C(O)(c2ccccc2)c2ccccc2)CC1 has a viability at 100 µM (HeLa) of 39.9%, a viability at 100 µM (HT-29) of 73.6% and a viability at 100 µM (MCF7) of 38.7%. It also gave a viability at 100 µM (HepG2) of 52.2% and a viability at 24 h, 100 µM [1] of 53.8%.

Molecule CS(=O)(=O)N1CCC(C(O)(c2ccccc2)c2ccccc2)CC1 has a viability at 100 µM (HeLa) of 64.4%, a viability at 100 µM (HT-29) of 74.7% and a viability at 100 µM (MCF7) of 60.5%. It also gave a viability at 100 µM (HepG2) of 60.9% and a viability at 24 h, 100 µM [1] of 64%.

For O=S(=O)(c1ccccc1)N1CCC(C(O)(c2ccccc2)c2ccccc2)CC1, the viability at 100 µM (HeLa) was 68.3%, the viability at 100 µM (HT-29) was 73.9% and the viability at 100 µM (MCF7) was 65.8%. For the same molecule, the viability at 100 µM (HepG2) was 68.3% and the viability at 24 h, 100 µM [1] was 63%.

In the case of CCCc1ccc(S(=O)(=O)N2CCC(C(O)(c3ccccc3)c3ccccc3)CC2)cc1, the viability at 100 µM (HeLa) is reported as 73.1%, the viability at 100 µM (HT-29) is reported as 74.2% and the viability at 100 µM (MCF7) is reported as 68.7%. The viability at 100 µM (HepG2) was 62.6% and the viability at 24 h, 100 µM [1] was 60%.

Work on CC(C)S(=O)(=O)N1CCC(C(O)(c2ccccc2)c2ccccc2)CC1 yielded a viability at 100 µM (HeLa) of 78.5%, a viability at 100 µM (HT-29) of 77.6% and a viability at 100 µM (MCF7) of 70.5%. For the same molecule, the viability at 100 µM (HepG2) was 64.7% and the viability at 24 h, 100 µM [1] was 60%.

Work on O=S(=O)(c1ccc(Cl)cc1F)N1CCC(C(O)(c2ccccc2)c2ccccc2)CC1 yielded a viability at 100 µM (HeLa) of 39.2%, a viability at 100 µM (HT-29) of 47.2% and a viability at 100 µM (MCF7) of 44.2%. For the same molecule, the viability at 100 µM (HepG2) was 46.3% and the viability at 24 h, 100 µM [1] was 51.8%.

O=S(=O)(CCl)N1CCC(C(O)(c2ccccc2)c2ccccc2)CC1 gave a viability at 100 µM (HeLa) of 56.1%, a viability at 100 µM (HT-29) of 45.2% and a viability at 100 µM (MCF7) of 66%. For the same molecule, the viability at 100 µM (HepG2) was 59.1% and the viability at 24 h, 100 µM [1] was 53.5%.

For O=S(=O)(Cc1ccccc1)N1CCC(C(O)(c2ccccc2)c2ccccc2)CC1, the viability at 100 µM (HeLa) was 70.1%, the viability at 100 µM (HT-29) was 76.5% and the viability at 100 µM (MCF7) was 69.7%. The viability at 100 µM (HepG2) was 39.1% and the viability at 24 h, 100 µM [1] was 59.8%.
